Laboratory results taken from patent US12570656B2, “Purine compounds for treating disorders” (MARVEL BIOTECHNOLOGY, priority 2020, dated 2026).
Values joined by “and” are separate entries in the source; they are usually repeats but may differ in a detail not shown here. Identical values can stand only once. Like-named read-outs stand apart in the source and are kept apart here.

How the values were obtained:
ADORA2A = ADORA2A (Homo sapiens, UniProt P29274); assay: GPCR screening, calcium flux (calcium mobilization), antagonist format; type: cell-based
Procedure: To ascertain whether the compounds are suitable A2aR antagonists, the compounds of formulae I, II, III, and IV were subjected to GPCR screening using A2aR as the target. The screening was done using the GPCR Screening and Profiling Services by Eurofins DiscoverX Corporation.
The compounds of formulae I, II, III, and IV were screened for GPCR activity using A2aR as the target.
Cell lines were expanded from freezer stocks according to standard procedures. Cells were seeded in a total volume of 20 μL into black-walled, clear-bottom, Poly-D-lysine coated 384-well microplates and incubated at 37° C. for the appropriate time prior to testing.
Assays were performed in 1× Dye Loading Buffer consisting of 1× Dye, 1× Additive A and 2.5 mM Probenecid in HBSS/20 mM Hepes. Probenicid was prepared fresh. Cells were loaded with dye prior to testing. Media was aspirated from cells and replaced with 20 μL Dye Loading Buffer. Cells were incubated for 30-60 minutes at 37° C.
For antagonist determination, cells were pre-incubated with sample followed by agonist challenge at the EC80 concentration. Intermediate dilution of sample stocks was performed to generate 3× sample in assay buffer. After dye loading, cells were removed from the incubator and 10 μL 3× sample was added. Cells were incubated for 30 minutes at room temperature in the dark to equilibrate plate temperature. Vehicle concentration was 1%. Compound antagonist activity was measured on a FLIPR Tetra (MDS). Calcium mobilization was monitored for 2 minutes and 10 μL EC80 agonist in HBSS/20 mM Hepes was added to the cells 5 seconds into the assay.
For antagonist and negative allosteric modulation mode assays, percentage inhibition is calculated using the following formula: % Inhibition=100%×(1−(mean RFU of test sample−mean RFU of vehicle control)/(mean RFU of EC80 control−mean RFU of vehicle control)).
When the calcium was released, the fluorescence of the dye was increased and the increase was measured in real-time.
FIGS. 1 to 6 show percent reacted (Y) versus concentration in μM (X). Compounds were tested in antagonist mode with the requested GPCR Biosensor Assay. For the antagonist assay, data was normalized to the maximal and minimal response observed in the presence of EC80 ligand and vehicle.

[1] = Brain pharmacokinetics and brain/plasma ratio in male CD-1 mice (1 mg/kg i.v.); type: in vivo; details: for Brain concentration / concentration at 5 min / concentration at 0.25 h / concentration at 0.5 h / concentration at 1 h / concentration at 2 h / concentration at 4 h / concentration at 6 h / concentration at 8 h: 1 mg/kg bolus i.v.; for concentration at 5 min / concentration at 0.25 h / concentration at 0.5 h / concentration at 1 h / concentration at 2 h / concentration at 4 h / concentration at 6 h / concentration at 8 h: intravenous, 1 mg/kg
Procedure: (§1) Male CD-1 mice were given either bolus 1 mg/kg i.v. or 3 mg/kg p.o. of the indicated compounds and plasma or brain concentrations were measured.
(§2) Where: • C0 concentration extrapolated to time zero following an i.v. dose • tmax time at which maximum concentration is observed • Cmax maximum observed concentration • Apparent t1/2 apparent terminal half-life • AUC0-tlast area under the concentration vs time curve from time 0 to the time of the last measurable concentration • AUC0-inf area under the concentration vs time curve from time 0 to infinity • CL systemic clearance • MRT0-inf mean residence time from time zero to infinity • Vss steady-state volume of distribution • F oral bioavailability=(Dose^iv*AUC^po)/(Dose^po*AUC^iv)*100

[2] = Plasma pharmacokinetics in male CD-1 mice (1 mg/kg i.v. or 3 mg/kg p.o.); details: CD-1, mouse, in vivo
Procedure: as §1, §2

[3] = male, CD-1, mouse, iv, brain, i.v. 1 mg/kg

ADORA2A, sequence (P29274 whole entry): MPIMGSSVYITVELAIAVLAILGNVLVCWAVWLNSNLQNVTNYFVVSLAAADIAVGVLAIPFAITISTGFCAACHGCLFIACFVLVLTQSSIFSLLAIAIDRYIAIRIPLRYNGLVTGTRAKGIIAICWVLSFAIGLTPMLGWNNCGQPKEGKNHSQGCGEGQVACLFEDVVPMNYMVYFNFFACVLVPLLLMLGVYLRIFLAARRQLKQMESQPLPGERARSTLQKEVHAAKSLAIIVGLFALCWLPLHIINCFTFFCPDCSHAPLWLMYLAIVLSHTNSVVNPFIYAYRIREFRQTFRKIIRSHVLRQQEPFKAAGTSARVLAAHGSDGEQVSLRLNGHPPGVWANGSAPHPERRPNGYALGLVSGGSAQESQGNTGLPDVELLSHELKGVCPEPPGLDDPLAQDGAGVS

Curve Bottom (ADORA2A; Antagonist format): 5.0984
Curve Top (ADORA2A; Antagonist format): 98
Hill (ADORA2A; Antagonist format): 1.3853
Emax (ADORA2A; read-out: Max Response): 97.1%
Brain concentration ([1]; 5 min, individual animals 1-3): 383 ng/g and 368 ng/g
Brain concentration ([1]; 0.25 h, individual animals 1-3): 454 ng/g and 394 ng/g
Brain concentration ([1]; 0.5 h, individual animals 1-3): 457 ng/g and 304 ng/g
Brain concentration ([1]; 1 h, individual animals 1-3): 348 ng/g and 354 ng/g
Brain concentration ([1]; 2 h, individual animals 1-3): 239 ng/g and 224 ng/g
Brain concentration ([1]; 4 h, individual animals 1-3): 165 ng/g and 113 ng/g
Brain concentration ([1]; 6 h, individual animals 1-3): 94.1 ng/g and 81.5 ng/g
Brain concentration ([1]; 8 h, individual animals 1-3): 63.9 ng/g and 38.8 ng/g
AUC0-tlast ([1]; brain, i.v. 1 mg/kg): 1315 ng·h/g
AUC(0-inf) ([1]; brain, i.v. 1 mg/kg): 1517 ng·h/g
concentration at 5 min ([1]; male, CD-1, mouse, brain, 5 min, individual animals 1-3, read-out: Brain concentration): 490 ng/g
concentration at 5 min ([1]; male, CD-1, mouse, brain, 5 min, read-out: Brain concentration, Mean): 414 ng/g
concentration at 0.25 h ([1]; male, CD-1, mouse, brain, 0.25 h, individual animals 1-3, read-out: Brain concentration): 379 ng/g
concentration at 0.25 h ([1]; male, CD-1, mouse, brain, 0.25 h, read-out: Brain concentration, Mean): 409 ng/g
concentration at 0.5 h ([1]; male, CD-1, mouse, brain, 0.5 h, individual animals 1-3, read-out: Brain concentration): 379 ng/g
concentration at 0.5 h ([1]; male, CD-1, mouse, brain, 0.5 h, read-out: Brain concentration, Mean): 380 ng/g
concentration at 1 h ([1]; male, CD-1, mouse, brain, 1 h, individual animals 1-3, read-out: Brain concentration): 262 ng/g
concentration at 1 h ([1]; male, CD-1, mouse, brain, 1 h, read-out: Brain concentration, Mean): 321 ng/g
concentration at 2 h ([1]; male, CD-1, mouse, brain, 2 h, individual animals 1-3, read-out: Brain concentration): 212 ng/g
concentration at 2 h ([1]; male, CD-1, mouse, brain, 2 h, read-out: Brain concentration, Mean): 225 ng/g
concentration at 4 h ([1]; male, CD-1, mouse, brain, 4 h, individual animals 1-3, read-out: Brain concentration): 96.9 ng/g
concentration at 4 h ([1]; male, CD-1, mouse, brain, 4 h, read-out: Brain concentration, Mean): 125 ng/g
concentration at 6 h ([1]; male, CD-1, mouse, brain, 6 h, individual animals 1-3, read-out: Brain concentration): 90.1 ng/g
concentration at 6 h ([1]; male, CD-1, mouse, brain, 6 h, read-out: Brain concentration, Mean): 88.6 ng/g
concentration at 8 h ([1]; male, CD-1, mouse, brain, 8 h, individual animals 1-3, read-out: Brain concentration): 45.5 ng/g
concentration at 8 h ([1]; male, CD-1, mouse, brain, 8 h, read-out: Brain concentration, Mean): 49.4 ng/g
Cmax [1, 3]: 414 ng/g
Tmax [1, 3]: 5 min
half-life ([1]; male, CD-1, mouse, iv, brain, i.v. 1 mg/kg, read-out: Apparent t1/2 (converted)): 2.83 h
MRT inf ([1]; male, CD-1, mouse, iv, brain, i.v. 1 mg/kg, read-out: MRT0-inf): 3.94 h
bioavailability [2]: 21.5%
AUC(0-inf) ([2]; iv, 1 mg/kg): 1580 ng·h/mL
AUC(0-t) ([2]; iv, 1 mg/kg): 1280 ng·h/mL
Cmax ([2]; iv, 1 mg/kg): 360 ng/mL
MRT inf ([2]; iv, 1 mg/kg): 4.73 h
Tmax ([2]; iv, 1 mg/kg): 0.25 h
Vd ([2]; iv, 1 mg/kg): 3 L/kg
clearance ([2]; iv, 1 mg/kg): 10.6 mL/min/kg
half-life ([2]; iv, 1 mg/kg): 3.39 h
AUC(0-inf) ([2]; po, 3 mg/kg): 1020 ng·h/mL
AUC(0-t) ([2]; po, 3 mg/kg): 988 ng·h/mL
Cmax ([2]; po, 3 mg/kg): 124 ng/mL
MRT inf ([2]; po, 3 mg/kg): 7.55 h
Tmax ([2]; po, 3 mg/kg): 1 h
half-life ([2]; po, 3 mg/kg): 4.44 h
SMILES: CCn1c(=S)c2c(nc(/C=C/c3ccc(OC)c(OC)c3)n2C)n(CC)c1=O [Formula III, 8-[(E)-2-(3,4-dimethoxyphenyl)vinyl]-1,3-diethyl-7-methyl-6-thioxo-purin-2-one]
